Results taken from patent US11197868B2, “Prevention of preterm birth (PTB) by inhibition of FKBP51” (UNIVERSITY OF SOUTH FLORIDA, priority 2017, dated 2021).

Tested on: FKBP51
Experiment: FKBP51 protein expression in primary term decidual cell cultures by immunoblotting
Type: cell-based
Settings: 24 hours
Description: This example describes an analysis of FKBP51 expression in primary term decidual cells (DCs) induced by dexamethasone (DEX) (0.1 μM) or 15dPGJ2 (5 or 20 μM) or DEX+15dPGJ2 (0.1 μM+5 or +20 μM).
Glucocorticoids (e.g. dexamethasone (DEX), medroxyprogesterone acetate) are primary inducers of FKBP51 mRNA and protein expression in decidual cells (DCs). It was determined that both restrained stress-induced preterm birth and fetal growth restriction are blocked in FKBP51 knockout mice compared to WT mice. To determine the potential therapeutic impact of 15-deoxy-Δ12,14-prostaglandin J2 (15dPGJ2) on regulation of dexamethasone-induced FKBP51, primary term DC cultures (n=1) were induced by DEX (0.1 μM), 15dPGJ2 (5 or 20 μM), or DEX+15dPGJ2 (0.1 μM+5 or +20 μM) for 24 hours, and FKBP51 protein levels were then analyzed by immunoblotting, as shown in FIG. 15A.

Compound | increase of FKBP51 expression compared to control (DEX 0.1 μM alone, primary term DC cultures (n=1)) [%] | decrease of FKBP51 expression compared to control (5 μm 15dPGJ2 alone, term DC cultures (n=1)) [%] | reduction of DEX-induced FKBP51 expression (5 μm 15dPGJ2 combined with DEX 0.1 μM, term DC cultures (n=1)) [%] | decrease of FKBP51 expression compared to control (20 μm 15dPGJ2 alone, term DC cultures (n=1)) [%] | effect on DEX-induced FKBP51 expression (20 μm 15dPGJ2 combined with DEX 0.1 μM, term DC cultures (n=1))
C[C@@H]1C[C@H]2[C@@H]3CCC4=CC(=O)C=C[C@]4(C)[C@@]3(F)[C@@H](O)C[C@]2(C)[C@@]1(O)C(=O)CO [DEX, dexamethasone] | 60 | – | – | – | –
CCCCC/C=C/C=C1/C(=O)C=C[C@@H]1C/C=C\CCCC(=O)O [15dPGJ2, 15-deoxy-Δ12,14-prostaglandin J2] | – | 10 | 12 | 18 | completely blocking DEX-induced FKBP51 expression
